{"source": "patent US5656662A", "about": "“Synthesis of optically pure 4-alkenyl- or 4-alkanyl-2-hydroxytetronic acids” (The Ohio State University Research Foundation, priority 1995, dated 1997)", "assay_type_in_all_cases": "cell-based", "design_in_all_cases": "key: NE: No effect; INHIB: Inhibition; STIM: Stimulation; IC40: 40% Inhibitory Concentration; EC50: 50% Effective Concentration; TC: Tolerated Concentration; IA: Interferes with Assay", "key": {"[1]": {"system": "adhesion of purified human monocytes to human umbilical vein endothelial cell (HUVEC) cultures", "assay": "Adhesion of purified human monocytes to HUVEC cultures", "conditions": "STIMULATED", "procedure": "This assays measures the ability of test compounds to modulate adhesion of purified human monocytes to human umbilical vein endothelial cell (HUVEC) cultures. HUVECs are cultured to confluence in 96-well plates. Purified human monocytes are labelled with fluorescent dye. Triplicate cultures of HUVECs and monocytes are treated with four dilutions of test compound over a range of three log10 concentrations, in addition to stimulated and unstimulated controls. One hour after treatment, TNFα is added to HUVEC cultures to stimulate production of adhesion molecules. After a twelve hour incubation, the treated monocytes are added to their corresponding HUVEC cultures and incubated for ten minutes. The stimulation index (S.I.) is determined by comparing the fluorescence of treated cultures to untreated controls using a fluorometric readout in a 96-well format."}, "IL-1ra": {"system": "IL-1ra", "assay": "IL-1ra secretion from purified human monocytes", "procedure": "This assay determines the effect of test compounds on the secretion of IL-1ra from purified human monocytes. Compounds are tested for their ability to downregulate or upregulate the production of IL-1ra in unstimulated monocytes and in activated monocytes. Test compounds are incubated for sixteen hours with purified human monocytes at four dilutions over a range of three log10 concentrations. Where appropriate, lipopolysaccharide (LPS) is used to stimulate the monocytes.\nThe level of IL-1ra in the resultant supernatants is quantitated in a solid phase Enzyme-linked Immunoassay (EIA) performed in a 96 well format. IL-1ra present in the samples is captured by a specific monoclonal antibody immobilized on the well, and probed with an anti-IL-1ra polyclonal antibody. A second antibody conjugated to horseradish peroxidase is then added, followed by an appropriate substrate. The levels of IL-1ra are determined by interpolation of the resultant color change in the substrate from a standard curve. […]\nThis assay determines the effect of test compounds on the secretion of IL-1ra from purified human monocytes. […] The level of IL-1ra in the resultant supernatants is quantitated in a solid phase Enzyme-linked Immunoassay (EIA) performed in a 96 well format. […] The levels of IL-1ra are determined by interpolation of the resultant color change in the substrate from a standard curve. […]"}, "[2]": {"system": "normal human mononuclear cells", "assay": "PHA mitogen-stimulated cell proliferation", "procedure": "(§1) The purpose of this procedure is to determine the effect of test compounds on Mixed Lymphocyte Reaction and Mitogen-Induced Proliferation of normal human mononuclear cells.\n(§2) Procedure for Cell Proliferation: Peripheral blood mononuclear cells (PBMNC) are added to a 96-well cell culture plate. Compounds are tested at four dilutions, in quadruplicates, over a range of three log10 concentrations along with negative an inhibitory controls. The test compounds are incubated with the cells for one hour, phytohemagglutinin (PHA) is then added to all reactive test wells and the cultures are incubated for three days. The cultures are then pulsed with ^3 H incorporation is then determined with a Wallac Betaplate counter.\nas §2, with “incubated with,” for “incubated with”, “for thee” for “for three”"}, "[3]": {"system": "normal human mononuclear cells", "assay": "Two Way Mixed Lymphocyte Reaction", "procedure": "as §1\nProcedure for Two Way Mixed Lymphocyte Reaction: PBMNC from two different donors are added to a 96-well cell culture plate. Four dilutions of test compounds, over a range of three log10 in quadruplicate, along with negative and inhibitory controls are then added to the plate and incubated for six days. Cultures are subsequently pulsed, harvested, and counted as above."}, "superoxide anion": {"system": "superoxide anion", "assay": "Superoxide anion release from purified human monocytes", "conditions": "zymosan", "procedure": "(§3) This assay measures the ability of the test compound to modulate the ability of purified human monocytes to release superoxide anions in response to a zymosan. Compounds are tested at four dilutions over a range of three log10 concentrations. Monocyte-compound cultures are treated with zymosan to stimulate anion production. The amount of superoxide anion produced is determined by the culture's ability to reduce cytochrome C, as measured colorimetrically. The assay is carried out in a 96-well format in triplicate and results are expressed in relation to baseline unstimulated and maximum controls. Appropriate reference controls are run with each assay.\nas §3, with “minimum” for “maximum”"}}}
{"smiles": "CCCCCCCCCCCCCC/C=C\\CC[C@@H]1OC(=O)C(O)=C1O", "note": "[(S)-3,4-Dihydroxy-5-[(Z)-3-octadecenyl]-2(5H)-furanone]", "values": [{"measurement": "EFFECT on ADHESION", "setting": "[1]", "value": "NE"}, {"measurement": "EFFECT on IL1ra", "setting": "IL-1ra; STIMULATED", "value": "NE"}, {"measurement": "EFFECT on IL1ra", "setting": "IL-1ra; UNSTIMULATED", "value": "NE"}, {"measurement": "EFFECT on PHA", "setting": "[2]", "value": "NE"}, {"measurement": "EFFECT on MLR", "setting": "[3]", "value": "NE"}, {"measurement": "EFFECT on SUPEROXIDE", "setting": "superoxide anion", "value": "IA"}]}
